Experimental findings from ChEMBL document CHEMBL1938324 (Bioorg Med Chem Lett, 2012) are described below.

Residue numbers refer to the chain shown, from its start. Calls of active or inactive are those of the source. The rule behind the calls is not given here. A value given as a limit tells only on which side of the number the result lay.

The target in data set [1] is T1, Muscarinic acetylcholine receptor M1 (Homo sapiens, UniProt P11229).
T1 sequence (P11229 whole entry): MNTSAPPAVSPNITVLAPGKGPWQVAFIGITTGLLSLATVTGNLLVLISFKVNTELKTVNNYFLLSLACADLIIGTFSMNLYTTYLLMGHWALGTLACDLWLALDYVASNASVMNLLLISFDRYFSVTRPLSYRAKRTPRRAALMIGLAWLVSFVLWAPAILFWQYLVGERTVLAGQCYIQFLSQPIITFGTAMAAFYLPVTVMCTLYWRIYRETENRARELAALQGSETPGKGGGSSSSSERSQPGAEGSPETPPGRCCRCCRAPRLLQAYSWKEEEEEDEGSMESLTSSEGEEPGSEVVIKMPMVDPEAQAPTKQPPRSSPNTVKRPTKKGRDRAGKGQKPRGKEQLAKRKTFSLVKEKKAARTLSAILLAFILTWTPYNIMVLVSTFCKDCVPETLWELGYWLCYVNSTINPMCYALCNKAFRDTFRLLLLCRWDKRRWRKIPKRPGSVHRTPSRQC
Put plainly: Antagonist activity at human muscarinic M1 receptor expressed in CHO cells assessed as inhibition of acetylcholine-induced calcium mobilization by fluorescence assay. It is filed as functional, cell-based. Background: Calcium assays in cells follow changes in intracellular calcium, usually with a dye or a luminescent sensor.

Data set [2] can be described thus: Oral bioavailability in Sprague-Dawley rat at 10 mg/kg. The class given is ADME, organism-based. Particulars: in vivo.
Data set [3] concerns the target T2, Muscarinic acetylcholine receptor M2 (Homo sapiens, UniProt P08172).
T2 sequence (P08172 whole entry): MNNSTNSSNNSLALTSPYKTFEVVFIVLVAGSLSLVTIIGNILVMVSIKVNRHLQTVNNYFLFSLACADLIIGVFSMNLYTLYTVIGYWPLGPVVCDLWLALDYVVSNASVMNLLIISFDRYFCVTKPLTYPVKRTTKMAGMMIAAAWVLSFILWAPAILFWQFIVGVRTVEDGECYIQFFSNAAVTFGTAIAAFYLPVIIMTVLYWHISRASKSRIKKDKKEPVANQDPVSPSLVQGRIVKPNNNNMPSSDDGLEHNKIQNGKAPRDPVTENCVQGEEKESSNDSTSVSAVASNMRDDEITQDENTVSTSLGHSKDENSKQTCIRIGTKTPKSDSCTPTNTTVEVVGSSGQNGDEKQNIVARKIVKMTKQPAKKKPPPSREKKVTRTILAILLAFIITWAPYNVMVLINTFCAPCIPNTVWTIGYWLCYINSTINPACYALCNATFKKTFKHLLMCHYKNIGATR
Put plainly: Antagonist activity at human muscarinic M2 receptor expressed in CHO cells assessed as inhibition of acetylcholine-induced calcium mobilization by fluorescence assay. It is filed as functional, cell-based.

Data set [4] deals with T3, Muscarinic acetylcholine receptor M1 (Rattus norvegicus, UniProt P08482).
T3 sequence (P08482 whole entry): T1 sequence (P11229 whole entry) with A5V, T254S, P309S, R320K, A337G, I413V
Put plainly: Antagonist activity at rat muscarinic M1 receptor expressed in CHO cells assessed as inhibition of acetylcholine-induced calcium mobilization by fluorescence assay. The class given is functional, cell-based.

The target of data set [5] is Muscarinic acetylcholine receptor M3 (Homo sapiens, UniProt P20309). Put plainly: Antagonist activity at human muscarinic M3 receptor expressed in CHO cells assessed as inhibition of acetylcholine-induced calcium mobilization by fluorescence assay. The class given is functional, cell-based.
Data set [6] in a line: Clearance in iv dosed Sprague-Dawley rat. The class given is ADME, organism-based. To be noted: in vivo.
The target of data set [7] is T4, Muscarinic acetylcholine receptor M5 (Homo sapiens, UniProt P08912).
T4 sequence (P08912 whole entry): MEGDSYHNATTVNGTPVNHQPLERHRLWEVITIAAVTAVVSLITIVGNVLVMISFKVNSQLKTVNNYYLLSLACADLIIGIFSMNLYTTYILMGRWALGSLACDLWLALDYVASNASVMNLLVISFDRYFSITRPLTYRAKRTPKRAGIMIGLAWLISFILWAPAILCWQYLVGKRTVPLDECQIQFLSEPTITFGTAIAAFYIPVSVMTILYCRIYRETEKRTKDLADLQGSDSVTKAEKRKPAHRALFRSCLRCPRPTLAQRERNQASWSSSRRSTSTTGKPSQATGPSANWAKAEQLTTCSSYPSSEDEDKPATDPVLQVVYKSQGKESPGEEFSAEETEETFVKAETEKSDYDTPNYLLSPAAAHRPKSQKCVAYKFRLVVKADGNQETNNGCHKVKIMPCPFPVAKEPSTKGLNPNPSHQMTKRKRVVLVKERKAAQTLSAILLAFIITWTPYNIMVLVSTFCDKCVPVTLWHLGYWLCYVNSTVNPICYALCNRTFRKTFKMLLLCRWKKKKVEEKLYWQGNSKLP
Put plainly: Antagonist activity at human muscarinic M5 receptor expressed in CHO cells assessed as inhibition of acetylcholine-induced calcium mobilization by fluorescence assay. It is filed as functional, cell-based.

For data set [8], the target named is T5, Muscarinic acetylcholine receptor M4 (Homo sapiens, UniProt P08173).
T5 sequence (P08173 whole entry): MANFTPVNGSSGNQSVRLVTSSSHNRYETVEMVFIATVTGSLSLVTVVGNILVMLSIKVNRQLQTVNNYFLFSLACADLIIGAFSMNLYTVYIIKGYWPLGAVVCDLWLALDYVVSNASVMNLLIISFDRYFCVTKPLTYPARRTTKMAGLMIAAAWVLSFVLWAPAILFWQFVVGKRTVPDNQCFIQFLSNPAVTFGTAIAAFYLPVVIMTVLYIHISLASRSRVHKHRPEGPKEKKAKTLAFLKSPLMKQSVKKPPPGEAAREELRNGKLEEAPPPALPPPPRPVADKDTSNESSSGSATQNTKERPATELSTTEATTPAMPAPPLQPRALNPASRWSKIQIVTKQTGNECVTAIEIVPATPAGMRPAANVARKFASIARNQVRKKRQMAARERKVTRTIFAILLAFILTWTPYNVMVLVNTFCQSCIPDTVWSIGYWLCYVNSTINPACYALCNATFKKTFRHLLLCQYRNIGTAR
Put plainly: Antagonist activity at human muscarinic M4 receptor expressed in CHO cells assessed as inhibition of acetylcholine-induced calcium mobilization by fluorescence assay. The class given is functional, cell-based.

In a further data set the test system is Rattus norvegicus. Put plainly: Half life in iv dosed Sprague-Dawley rat. The class given is ADME, organism-based. To be noted: in vivo.
Data set [9] concerns the target T6, Muscarinic acetylcholine receptor M1 (Homo sapiens) (UniProt P11229).
T6 sequence (whole entry): T1 sequence (P11229 whole entry)
Put plainly: Antagonist activity at human muscarinic M1 receptor expressed in CHO cells assessed as residual activity at 30 uM by fluorescence assay. The class given is functional, cell-based.

Data set [10] has as its target T6, Muscarinic acetylcholine receptor M1 (Homo sapiens). Put plainly: Inhibition of human muscarinic M1 receptor expressed in CHO cells assessed as inhibition of acetylcholine-induced calcium mobilization at 30 uM by fluorescence assay. The class given is functional, cell-based.
The target is the same in data set [11]. Put plainly: Ratio of ML012 IC50 to compound IC50 for human muscarinic M1 receptor.

Muscarinic acetylcholine receptor M3, sequence (P20309 whole entry): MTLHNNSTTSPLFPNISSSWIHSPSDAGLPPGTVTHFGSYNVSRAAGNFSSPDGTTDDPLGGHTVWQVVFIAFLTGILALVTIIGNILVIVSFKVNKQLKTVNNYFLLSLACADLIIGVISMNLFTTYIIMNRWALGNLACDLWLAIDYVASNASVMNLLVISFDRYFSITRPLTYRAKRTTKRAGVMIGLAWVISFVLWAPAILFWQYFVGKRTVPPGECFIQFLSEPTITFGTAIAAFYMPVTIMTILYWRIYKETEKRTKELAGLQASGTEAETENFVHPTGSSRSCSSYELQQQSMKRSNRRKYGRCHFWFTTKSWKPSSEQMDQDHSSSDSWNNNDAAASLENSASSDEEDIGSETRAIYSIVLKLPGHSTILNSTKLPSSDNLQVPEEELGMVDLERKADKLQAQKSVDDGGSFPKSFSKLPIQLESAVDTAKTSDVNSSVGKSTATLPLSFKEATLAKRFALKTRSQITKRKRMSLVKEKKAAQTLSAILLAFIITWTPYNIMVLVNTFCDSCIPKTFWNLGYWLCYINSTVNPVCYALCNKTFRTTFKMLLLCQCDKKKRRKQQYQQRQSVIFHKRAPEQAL

Consider `O=C(CCNS(=O)(=O)c1cccc2nonc12)N1CCN(c2ccc(Br)cn2)CC1`, for which, in data set [1], the IC50 (usually the concentration at which inhibition is half-maximal) is 1.1 µM. On the same count and under the same terms, next, `COc1cccc(S(=O)(=O)NCCC(=O)N2CCN(c3ccc(Br)cn3)CC2)c1`: more than 10 µM; `O=C(CCNS(=O)(=O)c1cccc2scnc12)N1CCN(c2ccncc2)CC1`: more than 10 µM. For `O=C(CCNS(=O)(=O)c1cccc2ncccc12)N1CCN(c2ccncc2)CC1`, the bioavailability (as a rule, dose-corrected exposure relative to a reference, in per cent) in [2] was less than 10%. For the same compound, the IC50 in [3] was more than 30 µM; in data set [4], 0.18 µM; in [5], more than 30 µM; in data set [1], 0.4 µM; in [7] it was more than 30 µM; in [8] it was more than 30 µM. Moreover, the clearance (in general, a measure of how efficiently the substance is removed, as volume per time) in data set [6] was determined as 77 mL/min/kg. In the data set on Rattus norvegicus, this compound returned a t1/2 of 40 min. On to `O=C(CCNS(=O)(=O)c1cccc2nsnc12)N1CCN(c2ccncc2)CC1`, for which the IC50 turned out to be 0.24 µM in data set [4] and 0.69 µM in data set [1].

Consider `O=C(CCNS(=O)(=O)c1cccc2nsnc12)N1CCN(c2cccc(Cl)n2)CC1`, for which, in data set [1], the IC50 was more than 10 µM.

Take `CN(CCC(=O)N1CCN(c2ccncc2)CC1)S(=O)(=O)c1cccc2nsnc12`: in data set [1], the IC50 was more than 10 µM.

As to `O=C(CCNS(=O)(=O)c1c(Cl)ccc2nonc12)N1CCN(c2ccc(Br)cn2)CC1`, in [1], the IC50 was more than 10 µM. For the compound `O=C(C(F)CNS(=O)(=O)c1cccc2nonc12)N1CCN(c2ccncc2)CC1` (racemic), the Activity in data set [9] turned out to be 25%. Regarding `O=C(CCNS(=O)(=O)c1cccc2nsnc12)N1CCN(c2nccs2)CC1`, the IC50 in data set [1] was more than 10 µM. Same read-out and setting: the figure for `O=C(CCNS(=O)(=O)c1cccc2nsnc12)N1CCN(c2ncccn2)CC1` is more than 10 µM. The same measure, in the same setting: next, `O=C(CCNS(=O)(=O)c1ccc2nsnc2c1)N1CCN(c2ccncc2)CC1`: more than 10 µM; `Cc1cnccc1N1CCN(C(=O)CCNS(=O)(=O)c2cccc3nsnc23)CC1`: 2 µM; `O=C(CCNS(=O)(=O)c1cccnc1)N1CCN(c2ccncc2)CC1`: more than 10 µM. Consider `C[C@@H](CC(=O)N1CCN(c2ccncc2)CC1)NS(=O)(=O)c1cccc2nonc12`, for which the inhibition – broadly, the drop in the measured response relative to a control, in per cent – in data set [10] turned out to be 30%. Regarding `O=C(CCNS(=O)(=O)c1cccc2ccccc12)N1CCN(c2ccc(Br)cn2)CC1`, in data set [1], the IC50 was more than 10 µM. With `O=C(CCNS(=O)(=O)c1cccc2nsnc12)N1CCN(c2ccnc(F)c2)CC1`, in data set [1], the IC50 was more than 10 µM. Still for that read-out and setting: the figure for `O=C(CCNS(=O)(=O)c1cccc2ncccc12)N1CCN(c2ccc(Br)cn2)CC1` is 2.1 µM; for `O=C(CCNS(=O)(=O)c1ccc(F)c2nonc12)N1CCN(c2ccc(Br)cn2)CC1` it is 4.8 µM.

In the case of `O=C(CCNS(=O)(=O)c1cccc2nsnc12)N1CCN(c2cccc(F)n2)CC1`, the IC50 in [1] is more than 10 µM. As to `O=C(CCNS(=O)(=O)c1cccc2nonc12)N1CCN(c2ccncc2)CC1`, the IC50 in data set [1] came out at 2.6 µM. As to `O=C(CCNS(=O)(=O)c1cccc2nsnc12)N1CCN(c2ccc(Br)cn2)CC1`, the Ratio IC50 in data set [11] is 2. Besides, in data set [1], the IC50 came to 0.32 µM. `O=C(CCNS(=O)(=O)c1cccc2nsnc12)N1CCN(c2ncc(Cl)cn2)CC1`: the IC50 in data set [1] was more than 10 µM. As to `O=S(=O)(NCCCN1CCN(c2ccncc2)CC1)c1cccc2nsnc12`, the Activity in data set [9] is 17%. Besides, the IC50 in [1] is more than 10 µM. With `O=C(CCNS(=O)(=O)c1cccc2nsnc12)N1CCN(c2ccccn2)CC1`, the half-inhibitory concentration (IC50) in data set [1] is more than 10 µM.

On to `Cc1ccc2nonc2c1S(=O)(=O)NCCC(=O)N1CCN(c2ccc(Br)cn2)CC1`, for which the IC50 in [1] is more than 10 µM. Same read-out and setting: the figure for `O=C(CCNS(=O)(=O)c1cccc2nsnc12)N1CCN(c2ccnc(Cl)c2)CC1` is more than 10 µM; for `O=C(CCNS(=O)(=O)c1cccc2nsnc12)N1CCN(c2nc3ccccc3o2)CC1` it is more than 10 µM; for `O=C(CCNS(=O)(=O)c1cccc(-n2cnnn2)c1)N1CCN(c2ccncc2)CC1` it is more than 10 µM. Still for that read-out and setting: next, `Cc1ccc2nonc2c1S(=O)(=O)NCCC(=O)N1CCN(c2ccncc2)CC1`: more than 10 µM; `Cc1cccc(N2CCN(C(=O)CCNS(=O)(=O)c3cccc4nsnc34)CC2)n1`: more than 10 µM. Still for that read-out and setting: the figure for `Cc1ccc2nsnc2c1S(=O)(=O)NCCC(=O)N1CCN(c2ccncc2)CC1` is more than 10 µM; for `Cc1ccnc(N2CCN(C(=O)CCNS(=O)(=O)c3cccc4nsnc34)CC2)c1` it is more than 10 µM.

In the case of `O=C(CCNS(=O)(=O)c1cccc2cccnc12)N1CCN(c2ccc(Br)cn2)CC1`, the IC50 in data set [1] was more than 10 µM. The same measure, in the same setting: next, `O=C(CCNS(=O)(=O)c1cccc2nsnc12)N1CCN(c2cc(Cl)ccn2)CC1`: 4.5 µM; `CN(C)c1cccc2c(S(=O)(=O)NCCC(=O)N3CCN(c4ccncc4)CC3)cccc12`: more than 10 µM. `C[C@H](CC(=O)N1CCN(c2ccncc2)CC1)NS(=O)(=O)c1cccc2nonc12`: the inhibition result in data set [10] is “inactive”. As for `O=C(CCNS(=O)(=O)c1cccc2nsnc12)N1CCN(c2nc3ccccc3s2)CC1`, the IC50 in data set [1] is more than 10 µM. Same read-out and setting: the figure for `CC(=O)Nc1nc(C)c(S(=O)(=O)NCCC(=O)N2CCN(c3ccc(Br)cn3)CC2)s1` is more than 10 µM.
